The subject of assay [1] is MDA‐MB‐231 breast cancer cells. As to the kind of experiment: MTT cell viability assay, MDA-MB-231. The assay is classed as cell-based, human. The settings on record: for IC50: MTT, 72 h. Here is the method:
(§1) Human cell lines, breast cancer MCF‐7 and MDA‐MB‐231, along with the human breast epithelial cell line (MCF‐10A), were purchased from ATCC (Rockville, USA). The necessary supplies, including fetal bovine serum (FBS), RPMI 1640 medium, 3‐(4,5‐dimethylthiazol‐2‐yl)‐2,5‐diphenyltetrazolium bromide (MTT), and DMSO, were provided by Merck (Darmstadt, Germany). The cells were maintained at 37°C in a CO2─enriched chamber, utilizing RPMI 1640 medium fortified with 10% FBS and 100 U/mL of penicillin/streptomycin [30].
(§2) Cell survival was evaluated using the MTT technique, which measures cellular redox activity. In metabolically active cells, MTT (3‐(4,5‐dimethylthiazol‐2‐yl)) is reduced to form an insoluble purple formazan. This formazan was solubilized, and its concentration was quantified by measuring optical density. MTT, sourced as a powder from Sigma, was made with phosphate‐buffered saline (PBS) in a 5 mM standard solution. The density at which cells were propagated was 10⁴ cells per well in 96‐well plates. Triazole‐coumarin hybrids were dissolved in DMSO, and varying concentrations (0.1–200 µM) of these derivatives were applied to the cells. Following treatment for 24, 48, and 72 h, 20 µL of the MTT mix was applied to each well, and the wells were then incubated for 4 h at thirty‐seven degrees in a CO2 incubator. After incubating, the formazan crystals were dissolved by adding 200 µL of DMSO after the MTT mixture was withdrawn. The absorption rate was recorded at 590 nm utilizing a Tecan spectrophotometer. Cisplatin served as the reference drug. […] To determine the selective toxicity of the triazole‐coumarin hybrids against breast cancer cells, the formula was used to compute the SI = IC50 for normal cells/IC50 for cancer cells.
(In general: Formazan colour is commonly taken as a measure of viable cells.)

The subject of assay [2] is MCF‐10A human breast epithelial cells. As to the kind of experiment: MTT cell viability assay, MCF-10A. The note with it: 72 h, non-tumorigenic cells. The assay is classed as cell-based. Here is the method:
as §1, §2

Assay [3] deals with MCF‐7 breast cancer cells. Description: MTT cell viability assay, MCF-7. The assay is classed as cell-based, human. The settings on record: for IC50: MTT, 72 h. The protocol:
as §1, §2

The next assay has as its system MCF‐7. Set-up: method as in PMID 30556027. The note with it: literature ref 28; cited from earlier work.
Assay [4] relates to Bax mRNA. Description: qRT-PCR Bax mRNA in MCF-7. The class given is cell-based, human. The note with it: MCF-7, IC50 value of 5f, 72 h. Here is the method: (§3) To figure out the mRNA levels of apoptosis‐related proteins B‐cell lymphoma 2 (Bcl─2), Bcl─2‐associated X protein (Bax), cyclin‐dependent kinase 2 (CDK2), and Cyclin E, total mRNA was extracted from cells treated with compound 5f using Trizol reagent (Sigma). Complementary DNA (cDNA) synthesis was conducted from total mRNA using a Qiagen cDNA synthesis kit as described by the manufacturer. The primers listed below (350 nM concentration) were utilized: Bcl─2; forward ([…]); reverse ([…]), Bax; forward ([…]); reverse ([…]), CDK2; forward ([…]); reverse (TGGCTGAAATCCGCTTGTT), Cyclin E; forward ([…]); reverse ([…]), human GAPDH; forward ([…]); reverse (AGATGGTGATGGGCTTCCC). The PCR reaction mixture consisted of 1X buffer, 0.2 mM dNTPs, 1.6 mM MgCl2, 50 pmol of primer sets, cDNA, and 0.25 U of Taq polymerase. The thermal cycling conditions included an initial denaturation at 95°C for 60 s, followed by 50 cycles comprising 15 s of denaturation at 95°C, 15 s of annealing at 60°C, and 60 s of extension at 72°C. The median CT value of GAPDH, the naturally present housekeeping gene, was utilized to normalize the cycle threshold (CT) values. Levels of compared transcription were established using the comparative ^ΔΔCT method.
For orientation: In qPCR the cycle at which signal appears reflects the starting amount.

The subject of assay [5] is MCF‐7 breast cancer cells. As to the kind of experiment: DNA fragmentation (Cell Death Detection kit), MCF-7. The class given is cell-based, human. The settings on record: 72 h, p < 0.05. Here is the method:
(§4) As an apoptotic signature, DNA fragmentation was evaluated using the Cell Death Detection kit (Sigma). In 96‐well plates, cancerous cells were cultivated at a density of 1×10⁵ cells per well, and compound 5f was applied at its IC50 concentration for 72 h. In brief, 20 µL of cell lysates were transferred to streptavidin‐coated wells preloaded with anti‐DNA antibodies and held at RT for 2 h. Three washes afterward with the provided washing buffer, 2,2‐azino‐di‐(3‐ethylbenzthiazoline sulfonate) diammonium salt was put into every well. Absorbance was determined at 405 nm employing a spectrophotometer.

Assay [6] concerns Bcl─2 mRNA. Description: qRT-PCR Bcl-2 mRNA in MDA-MB-231. The class given is cell-based, human. The settings on record: MDA-MB-231, IC50 value of 5f, 72 h. The protocol: as §3
The subject of assay [7] is Bax mRNA. As to the kind of experiment: qRT-PCR Bax mRNA in MDA-MB-231. The assay is classed as cell-based, human. The settings on record: MDA-MB-231, IC50 value of 5f, 72 h. The protocol: as §3
For assay [8], the system named is Bcl─2 mRNA. Description: qRT-PCR Bcl-2 mRNA in MCF-7. The assay is classed as cell-based, human. The note with it: MCF-7, IC50 value of 5f, 72 h. The protocol: as §3
Assay [9] has as its system MCF‐7 breast cancer cells. Description: Cell cycle analysis by flow cytometry (PI), MCF-7. The assay is classed as cell-based, human. The settings on record: 72 h. Here is the method: (§5) In 24‐well plates, cells were introduced at a concentration of 5×10⁵ colonies per plate, and compound 5f was administered at its IC50 concentration for 72 h. The cell cycle phases were evaluated using the Cayman Cell Cycle Phase Determination Kit. Following treatment, applying cold PBS, cells were rinsed, trypsinized, and 5 min of centrifugation at 500 × g. The resulting pellets were resuspended in 250 µL of fixative and held at −20°C for 2 h. After a second centrifugation at 500 × g for 5 min, washing was carried out with PBS and stained with propidium iodide (PI) for 30 min at room temperature. Flow cytometric analysis of the cell cycle was implemented using a BD Accuri C6 flow cytometer, with detection wavelengths ranging from 488 to 650 nm.

Assay [10] relates to MDA‐MB‐231 breast cancer cells. Description: Cell cycle analysis by flow cytometry (PI), MDA-MB-231. The class given is cell-based, human. The note with it: 72 h. The protocol:
as §5

For assay [11], the system named is MDA‐MB‐231 breast cancer cells. As to the kind of experiment: DNA fragmentation (Cell Death Detection kit), MDA-MB-231. The class given is cell-based, human. The settings on record: 72 h, p < 0.05. Here is the method: as §4
Where [12] appears, read: SI = IC50 for normal cells (MCF-10A)/IC50 for cancer cells.

A value given as a limit tells only on which side of the number the result lay.

For orientation: IC50 means the concentration needed to halve the response being measured. A higher IC50 goes with weaker potency. `N.N.[Cl][Pt][Cl]` [Cisplatin, cisplatin, reference compound]: the IC50 in assay [1] was determined as 8.7 ± 0.6 µM; in [2] it was 12.2 ± 0.8 µM; in assay [3], 9.3 ± 1.2 µM.

As for `Cc1n[nH]c(=O)n1NC(=O)c1cc2c(ccc3ccccc32)oc1=O` [Derivative 5a, N‐(3‐Methyl‐5‐oxo‐1,5‐dihydro‐4H‐1,2,4‐triazol‐4‐yl)‐3‐oxo‐3H‐benzo[f]chromene‐2‐carboxamide], the IC50 in [1] (Homo sapiens, MDA-MB-231, 72 h) amounted to 18.4 ± 1.16 µM; in assay [2] (Homo sapiens, MCF-10A), 12.5 ± 1 µM; in assay [3] (Homo sapiens, MCF7, 72 h), 22.5 ± 1.8 µM.

For the molecule `CCc1n[nH]c(=O)n1NC(=O)c1cc2c(ccc3ccccc32)oc1=O` [Derivative 5b, N‐(3‐Ethyl‐5‐oxo‐1,5‐dihydro‐4H‐1,2,4‐triazol‐4‐yl)‐3‐oxo‐3H‐benzo[f]chromene‐2‐carboxamide], the “apoptotic effect in MCF‐7” value in the assay on MCF‐7 is reported as “altered the mitochondrial membrane potential in MCF‐7, causing apoptotic cell death”. Further, the half-inhibitory concentration (IC50) in assay [1] (Homo sapiens, MDA-MB-231, 72 h) worked out at 95.8 ± 2.4 µM; in [2] (Homo sapiens, MCF-10A), 25.2 ± 1.5 µM; in assay [3] (Homo sapiens, MCF7, 72 h), 76.6 ± 2.1 µM.

For the molecule `O=C(Nn1c(-c2ccccc2)n[nH]c1=O)c1cc2c(ccc3ccccc32)oc1=O` [Derivative 5c, 3‐Oxo‐N‐(5‐oxo‐3‐phenyl‐1,5‐dihydro‐4H‐1,2,4‐triazol‐4‐yl)‐3H‐benzo[f]chromene‐2‐carboxamide], the IC50 was 64 ± 1.4 µM in assay [1] (Homo sapiens, MDA-MB-231, 72 h); 62.8 ± 0.4 µM in assay [2] (Homo sapiens, MCF-10A); 25.9 ± 0.8 µM in assay [3] (Homo sapiens, MCF7, 72 h).

For the molecule `O=C(Nn1c(Cc2ccccc2)n[nH]c1=O)c1cc2c(ccc3ccccc32)oc1=O` [Derivative 5d, N‐(3‐Benzyl‐5‐oxo‐1,5‐dihydro‐4H‐1,2,4‐triazol‐4‐yl)‐3‐oxo‐3H‐benzo[f]chromene‐2‐carboxamide], the IC50 came to 87 ± 2 µM in [1] (Homo sapiens, MDA-MB-231, 72 h); 38.2 ± 0.7 µM in assay [2] (Homo sapiens, MCF-10A); 49.8 ± 2.2 µM in assay [3] (Homo sapiens, MCF7, 72 h).

Turning to `Cc1ccc(Cc2n[nH]c(=O)n2NC(=O)c2cc3c(ccc4ccccc43)oc2=O)cc1` [Derivative 5e, N‐(3‐(4‐Methylbenzyl)‐5‐oxo‐1,5‐dihydro‐4H‐1,2,4‐triazol‐4‐yl)‐3‐oxo‐3H‐benzo[f]chromene‐2‐carboxamide], the concentration for half-maximal inhibition (IC50) turned out to be 61.7 ± 0.4 µM in assay [1] (Homo sapiens, MDA-MB-231, 72 h); 40.6 ± 2.1 µM in assay [2] (Homo sapiens, MCF-10A); 68.9 ± 3.1 µM in assay [3] (Homo sapiens, MCF7, 72 h).

Consider `O=C(Nn1c(Cc2ccc(Cl)cc2)n[nH]c1=O)c1cc2c(ccc3ccccc32)oc1=O` [Derivative 5f, N‐(3‐(4‐Chlorobenzyl)‐5‐oxo‐1,5‐dihydro‐4H‐1,2,4‐triazol‐4‐yl)‐3‐oxo‐3H‐benzo[f]chromene‐2‐carboxamide], for which the “Bax mRNA level, upregulated” value in the assay with Bax mRNA [4] and in the assay with Bax mRNA [7] was 2.35 fold each time. The IC50 was below 25 µM in assay [1] (Homo sapiens, MDA-MB-231, 72 h); 15.7 ± 0.2 µM in assay [1]; 61.9 ± 0.6 µM in assay [2] (Homo sapiens, MCF-10A); below 25 µM in assay [3] (Homo sapiens, MCF7, 72 h); 22.1 ± 0.42 µM in assay [3]. Besides, in assay [1] (setting [12]), the “selectivity index (SI) MDA‐MB‐231” value is reported as 3.9. In addition, the DNA fragmentation induction amounted to 1.65 fold in assay [5] (MCF-7, 1 µM); 3 fold in assay [5] (MCF-7, 10 µM); 4.1 fold in assay [5] (MCF-7, 50 µM); 1.7 fold in [11] (MDA-MB-231, 1 µM); 2.15 fold in [11] (MDA-MB-231, 10 µM); 4.15 fold in assay [11] (MDA-MB-231, 50 µM). The “Bcl─2 mRNA level, downregulated” value amounted to 3.1 fold in the assay on Bcl─2 mRNA [6] and 2.1 fold in the assay with Bcl─2 mRNA [8]. Besides, the “Cell cycle kinetics, M” value worked out at 22.9 in [9] (MCF-7, IC50 value of 5f) and 20.0 in [10] (MDA-MB-231, IC50 value of 5f). Moreover, the “Cell cycle kinetics, S” value in assay [9] (MCF-7, IC50 value of 5f) was found to be 36.1; in [10] (MDA-MB-231, IC50 value of 5f), 36.6. Moreover, the “phase of cell cycle block” value is reported as “S phase” in assay [9] (MCF-7, IC50 value) and “S phase” in assay [10] (MDA-MB-231, IC50 value). Moreover, in assay [3] (setting [12]), the “selectivity index (SI) MCF‐7” value is listed as 2.8. Further, in assay [10] (MDA-MB-231, IC50 value of 5f), the “Cell cycle kinetics, G0/G1” value was 0.8.
